Laboratory results: PubChem BioAssay AID330 (DTP/NCI, 2004)
Values joined by “and” are separate entries in the source; they are usually repeats but may differ in a detail not shown here. Identical values can stand only once. Toxic doses and inconclusive results are not listed.

Tested on: P388 leukemia ip, CD2F1 mice, survival T/C
Experiment: NCI In Vivo Anticancer Drug Screen. Data for tumor model P388 Leukemia (intraperitoneal) in CD2F1 (CDF1) mice
Conditions: endpoint: median survival time, higher = longer survival
Procedure, shortened: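 Mice carrying the transplanted tumor received test compound or vehicle. Survival was recorded in each group, and the value is the treated-group measurement divided by that of the vehicle-treated control group.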

[1] = dose: 25.0 mg/kg/injection, schedule: Q01DX009 (ip), vehicle: other
[2] = dose: 50.0 mg/kg/injection, schedule: Q01DX009 (ip), vehicle: other
[3] = dose: 100.0 mg/kg/injection, schedule: Q01DX009 (ip), vehicle: other
[4] = dose: 100.0 mg/kg/injection, schedule: Q01DX009 (ip), vehicle: saline
[5] = dose: 200.0 mg/kg/injection, schedule: Q01DX009 (ip), vehicle: other
[6] = dose: 200.0 mg/kg/injection, schedule: Q01DX009 (ip), vehicle: saline
[7] = dose: 400.0 mg/kg/injection, schedule: Q01DX009 (ip), vehicle: saline
[8] = dose: 25.0 mg/kg/injection, schedule: Q01DX009 (ip), vehicle: suspension in saline
[9] = dose: 50.0 mg/kg/injection, schedule: Q01DX009 (ip), vehicle: saline
[10] = dose: 50.0 mg/kg/injection, schedule: Q01DX009 (ip), vehicle: suspension in saline

CSCCC(N)C(=O)O (centres undefined)
T/C (dose: 25.0 mg/kg/injection, schedule: Q01DX005 (ip), vehicle: saline): 102 % of control
T/C [1]: 107 % of control
T/C (dose: 25.0 mg/kg/injection, schedule: Q01DX009 (ip), vehicle: saline with Tween-80): 103 % of control
T/C (dose: 37.5 mg/kg/injection, schedule: Q01DX009 (ip), vehicle: Klucel (hydroxypropylcellulose) (HPC)): 122 % of control
T/C (dose: 40.0 mg/kg/injection, schedule: Q01DX009 (ip), vehicle: saline with Tween-80): 105 % of control
T/C (dose: 50.0 mg/kg/injection, schedule: Q01DX005 (ip), vehicle: saline): 99 % of control
T/C [2]: 100 % of control and 107 % of control
T/C (dose: 50.0 mg/kg/injection, schedule: Q01DX009 (ip), vehicle: saline with Tween-80): 107 % of control
T/C (dose: 75.0 mg/kg/injection, schedule: Q01DX009 (ip), vehicle: Klucel (hydroxypropylcellulose) (HPC)): 103 % of control
T/C (dose: 75.0 mg/kg/injection, schedule: Q01DX009 (ip), vehicle: other): 98 % of control and 94 % of control
T/C (dose: 80.0 mg/kg/injection, schedule: Q01DX009 (ip), vehicle: saline with Tween-80): 100 % of control and 114 % of control
T/C (dose: 100.0 mg/kg/injection, schedule: Q01DX005 (ip), vehicle: saline): 107 % of control
T/C [3]: 100 % of control and 107 % of control
T/C (dose: 100.0 mg/kg/injection, schedule: Q01DX009 (ip), vehicle: saline with Tween-80): 108 % of control
T/C [4]: 102 % of control
T/C (dose: 150.0 mg/kg/injection, schedule: Q01DX009 (ip), vehicle: other): 103 % of control and 106 % of control
T/C (dose: 160.0 mg/kg/injection, schedule: Q01DX009 (ip), vehicle: saline with Tween-80): 99 % of control and 102 % of control
T/C (dose: 200.0 mg/kg/injection, schedule: Q01DX005 (ip), vehicle: saline): 101 % of control
T/C [5]: 110 % of control
T/C [6]: 112 % of control
T/C (dose: 225.0 mg/kg/injection, schedule: Q01DX009 (ip), vehicle: other): 109 % of control
T/C (dose: 320.0 mg/kg/injection, schedule: Q01DX009 (ip), vehicle: saline with Tween-80): 106 % of control and 97 % of control
T/C (dose: 400.0 mg/kg/injection, schedule: Q01DX005 (ip), vehicle: saline): 103 % of control
T/C [7]: 108 % of control
T/C (dose: 800.0 mg/kg/injection, schedule: Q01DX009 (ip), vehicle: saline): 108 % of control

CCN(CC)C(=O)C(N)Cc1ccc(OC)c(N(CCCl)CCCl)c1 (centres undefined)
T/C (dose: 6.25 mg/kg/injection, schedule: Q01DX009 (ip), vehicle: saline): 113 % of control
T/C (dose: 6.25 mg/kg/injection, schedule: Q01DX009 (ip), vehicle: suspension in saline): 116 % of control
T/C (dose: 25.0 mg/kg/injection, schedule: Q01DX009 (ip), vehicle: saline): 150 % of control
T/C [8]: 150 % of control
T/C [9]: 177 % of control
T/C [10]: 172 % of control

COC(=O)C1=NNC(C(=O)OC)=NN1
T/C [1]: 87 % of control
T/C [2]: 106 % of control
T/C [3]: 98 % of control
T/C [5]: 106 % of control
T/C (dose: 400.0 mg/kg/injection, schedule: Q01DX009 (ip), vehicle: other): 103 % of control

C1=NCCCN2CCCCC12 (centres undefined)
T/C (dose: 20.0 mg/kg/injection, schedule: Q01DX009 (ip), vehicle: saline): 98 % of control
T/C (dose: 40.0 mg/kg/injection, schedule: Q01DX009 (ip), vehicle: saline): 93 % of control

COc1ccc(/C(=N\O)c2nccc3cc(OC)c(OC)cc23)cc1OC
T/C (dose: 15.0 mg/kg/injection, schedule: Q01DX005 (ip), vehicle: saline with Tween-80): 116 % of control
T/C (dose: 30.0 mg/kg/injection, schedule: Q01DX005 (ip), vehicle: saline with Tween-80): 105 % of control
T/C (dose: 60.0 mg/kg/injection, schedule: Q01DX005 (ip), vehicle: saline with Tween-80): 99 % of control and 92 % of control

Nc1ccc(/C=C/c2ccc(N)cc2S(=O)(=O)O)c(S(=O)(=O)O)c1
T/C [8]: 99 % of control
T/C [9]: 104 % of control
T/C [10]: 95 % of control
T/C [4]: 104 % of control
T/C (dose: 100.0 mg/kg/injection, schedule: Q01DX009 (ip), vehicle: suspension in saline): 99 % of control
T/C [6]: 108 % of control
T/C (dose: 200.0 mg/kg/injection, schedule: Q01DX009 (ip), vehicle: suspension in saline): 107 % of control
T/C [7]: 110 % of control
